Assay results reported in ChEMBL document CHEMBL1156632, “Enhanced antimalarial activity of novel synthetic aculeatin derivatives” (J Med Chem, 2008).

Experiments:
[1] = system: K562; assay: (§1) Cytotoxicity against human K562 cells assessed as radioactive thymidine incorporation after 24 hrs; type: cell-based; conditions: k562, 24 h; for CC50: 24 h
[2] = system: Plasmodium falciparum; assay: Antimalarial activity against Plasmodium falciparum 3D7 in human erythrocytes after 48hrs by [3H]hypoxanthine uptake; type: functional, organism-based
[3] = Selectivity index, ratio of CC50 for human K562 cells to IC50 for Toxoplasma gondii RH-beta1; type: functional
[4] = system: Toxoplasma gondii; assay: Antitoxoplasmal activity against Toxoplasma gondii RH-beta1 in HFF cells assessed as beta-galactosidase activity after 48 to 72 hrs by colorimetric microtiter assay; type: functional, organism-based
[5] = system: Plasmodium falciparum; assay: Antimalarial activity against Plasmodium falciparum K1; type: functional, organism-based
[6] = Selectivity index, ratio of CC50 for human K562 cells to IC50 for Plasmodium falciparum 3D7; type: functional
[7] = as §1; type: cell-based; conditions: K562 cells
[8] = Toxoplasma gondii, RH-beta1, HFF

| Structure (SMILES) | IC50 ([2]; Plasmodium falciparum, 3D7) [nM] | Activity [1] | Selectivity Index [3] | IC50 [4, 8] [nM] | CC50 [1] [nM] | IC50 [2] [nM] | IC50 [5] [nM] | Selectivity Index [6] | CC50 at 24 h [7] [nM] | IC50 ([4]; hff) [nM] |
| --- | --- | --- | --- | --- | --- | --- | --- | --- | --- | --- |
| O=C1C=CC2(C=C1)CC[C@]1(CC(O)C[C@]3(CCC4(C=CC(=O)C=C4)O3)O1)O2 (some centres undefined) | 584 | Toxic | 35 | 1500 |  |  |  |  |  |  |
| CCCCCCCCCCCCC[C@@H]1C[C@H](O)C[C@@]2(CCC3(C=CC(=O)C=C3)O2)O1 |  |  |  | 309 | 25500 | 288 | 180 |  |  |  |
| O=C1C=CC2(C=C1)CC[C@]1(C[C@@H](O)C[C@@]3(CCC4(C=CC(=O)C=C4)O3)O1)O2 | 414 |  | 35 | 173 |  |  |  | 35 | 390 |  |
| CCCCCCC(=O)O[C@@H]1C[C@]2(CCC3(C=CC(=O)C=C3)O2)O[C@]2(CCC3(C=CC(=O)C=C3)O2)C1 | 343 |  | 35 |  |  |  |  | 35 | < 380 |  |
| CCCCCCCCCCCCC[C@@H](O)C[C@@H](O)CC(=O)CCc1ccc(O)cc1 | > 10000 |  |  |  |  |  |  | 35 | 34500 |  |
| CCCCCCCCCCCCCC1C[C@H](O)CC2(CCC3(C=CC(=O)C=C3)O2)O1 (single isomer, unassigned) | 329 |  |  | 627 |  |  |  | 35 | 22100 |  |
| CCCCCCCCCCCCCC1C[C@@H](O)CC2(CCC3(C=CC(=O)C=C3)O2)O1 (single isomer, unassigned) [ACULEATIN A] |  |  | 35 | 436 |  | 220 |  | 35 | 26700 |  |
| CCCCCCCCCCCCC[C@@H]1CC(O)CC2(CCC3(C=CC(=O)C=C3)O2)O1 (single isomer, unassigned; form 1) [ACULEATINS B] |  |  |  |  | 30200 | 451 |  |  |  | 377 |
| CCCCCCCCCCCCC[C@@H]1CC(O)CC2(CCC3(C=CC(=O)C=C3)O2)O1 (single isomer, unassigned; form 2) | 335 |  | 35 |  |  |  |  | 35 | 25800 | 436 |
| CCCCCCCCCCCCC[C@@H]1CC(O)CC2(CCC3(C=CC(=O)C=C3)O2)O1 (single isomer, unassigned; form 3) [ACULEATINS B] | 366 |  | 35 | 400 |  |  |  | 35 | 30800 |  |
| CCCCCCCCCCCCC[C@H]1C[C@@H](O)C[C@]2(CCC3(C=CC(=O)C=C3)O2)O1 [(+)-ACULEATIN B] | 454 |  | 35 | 365 |  |  | 430 | 35 | 27500 |  |
| CCCCCCCCCCCCC[C@@H]1C[C@@H](O)C[C@]2(CCC3(C=CC(=O)C=C3)O2)O1 [ACULEATIN A] |  |  |  |  | 28000 | 478 | 1000 |  |  | 640 |
| CCN(CC)CCCC(C)Nc1ccnc2cc(Cl)ccc12 (centres undefined) [CHLOROQUINE] |  |  |  |  |  |  |  |  | 9700 |  |

Now from value to compound, other results behind:

| IC50 ([2]; Plasmodium falciparum, 3D7) [nM] | Structure (SMILES) | Activity [1] | Selectivity Index [3] | IC50 [4, 8] [nM] | CC50 [1] [nM] | IC50 [2] [nM] | IC50 [5] [nM] | Selectivity Index [6] | CC50 at 24 h [7] [nM] | IC50 ([4]; hff) [nM] |
| --- | --- | --- | --- | --- | --- | --- | --- | --- | --- | --- |
| 92 | CCCCCCCCCCCCCC(=O)OC1C[C@]2(CCC3(C=CC(=O)C=C3)O2)O[C@]2(CCC3(C=CC(=O)C=C3)O2)C1 (some centres undefined) |  |  | 636 |  |  |  | 123 | 11300 |  |
| 81 | CCCCCCCCCCCCCC(=O)O[C@@H]1C[C@]2(CCC3(C=CC(=O)C=C3)O2)O[C@]2(CCC3(C=CC(=O)C=C3)O2)C1 |  |  | 346 |  |  |  | 109 | 8750 |  |
| 120 | CCCCCCCCCCCCCC(=O)CC(=O)O[C@@H]1C[C@]2(CCC3(C=CC(=O)C=C3)O2)O[C@]2(CCC3(C=CC(=O)C=C3)O2)C1 |  | 35 |  |  |  |  | 35 | < 380 |  |
| 331 | CCCCCCC(=O)OC1C[C@]2(CCC3(C=CC(=O)C=C3)O2)O[C@]2(CCC3(C=CC(=O)C=C3)O2)C1 (some centres undefined) |  | 35 |  |  |  |  |  | < 380 |  |
| 1150 | CCCCCCCCCCC(CCCCCCCCCC)OC(=O)C[C@H]1C[C@H](O)C[C@@]2(CCC3(C=CC(=O)C=C3)O2)O1 (racemic) |  | 35 | 4450 |  |  |  | 35 | 22100 |  |
| > 5000 | CCCCCCCCCCCCC[C@@H]1C[C@@H](O)C[C@]2(CCC3(CCC(=O)CC3)O2)O1 (racemic) |  | 35 | 11000 |  |  |  |  | 25600 |  |
| 770 | CCCCCCCCCCCCCCCCCCOC(=O)C[C@H]1C[C@H](O)C[C@@]2(CCC3(C=CC(=O)C=C3)O2)O1 (racemic) |  | 35 | 2400 |  |  |  | 35 | 13900 |  |
| 1130 | CCCCCCCCCCCCCCCCCCOC(=O)C[C@H]1C[C@@H](O)C[C@]2(CCC3(C=CC(=O)C=C3)O2)O1 (racemic) |  | 35 | 3520 |  |  |  | 35 | 15600 |  |
| 1030 | CCCCCCCCCCCCCCCCCCOC(=O)C[C@H]1C[C@@H](O)C[C@@]2(CCC3(C=CC(=O)C=C3)O2)O1 (racemic) |  | 35 | 3540 |  |  |  | 35 | 17500 |  |
| 1840 | CCCOC(=O)C[C@H]1C[C@H](O)C[C@@]2(CCC3(C=CC(=O)C=C3)O2)O1 (racemic) |  | 219 | 500 |  |  |  |  | 109000 |  |
| 899 | CCCCCCN(CCCCCC)C(=O)C[C@H]1C[C@H](O)C[C@@]2(CCC3(C=CC(=O)C=C3)O2)O1 (racemic) |  | 35 |  |  |  |  | 35 | 390 |  |
| 654 | CCCCCCCCCCOC(=O)C[C@H]1C[C@H](O)C[C@@]2(CCC3(C=CC(=O)C=C3)O2)O1 (stereo in doubt) |  | 35 | 341 |  |  |  | 35 | 28200 |  |
| 1360 | CCCCCCCCCCOC(=O)C[C@@H]1C[C@@H](O)C[C@]2(CCC3(C=CC(=O)C=C3)O2)O1 (stereo in doubt) |  |  | 1630 |  |  |  | 35 | 41200 |  |
